These results are taken from publication PMC6154719 (Molecules : A Journal of Synthetic Chemistry and Natural …, 2017).

Common to all, as to assay type: in vitro ADME
One series deals with T1, CYP1A2 (Homo sapiens, UniProt P05177).
T1 construct: Frozen liver (both rat and human) was thawed; from tissue; host or cells: human liver microsomal fraction
T1 sequence (P05177 1-516): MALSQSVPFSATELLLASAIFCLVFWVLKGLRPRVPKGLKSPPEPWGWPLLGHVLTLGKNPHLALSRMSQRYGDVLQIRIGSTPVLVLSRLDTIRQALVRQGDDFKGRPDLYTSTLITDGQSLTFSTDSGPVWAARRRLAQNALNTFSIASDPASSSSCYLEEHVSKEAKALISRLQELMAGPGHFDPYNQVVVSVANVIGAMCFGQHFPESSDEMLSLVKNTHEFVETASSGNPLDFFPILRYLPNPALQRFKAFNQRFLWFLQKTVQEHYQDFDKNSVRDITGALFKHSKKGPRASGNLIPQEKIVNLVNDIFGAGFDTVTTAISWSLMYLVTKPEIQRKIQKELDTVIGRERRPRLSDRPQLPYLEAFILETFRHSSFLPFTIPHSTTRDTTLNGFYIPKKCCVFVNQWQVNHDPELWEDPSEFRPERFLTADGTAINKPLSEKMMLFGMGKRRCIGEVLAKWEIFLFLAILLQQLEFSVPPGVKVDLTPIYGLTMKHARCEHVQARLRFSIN
As to the kind of experiment: CYP1A2 (EROD activity, 7-ethoxyresorufin O-deethylation) in human liver microsomes. As to conditions: for Specific Activity, CYP1A2 (EROD activity): in the presence of 100 µM sesquiterpene, control 1.88 ± 0.19; for inhibition at 5 µM: liver microsomes, probe 7-ethoxyresorufin, human, 5 µM inhibitor. On the procedure: (§1) Enzyme activities were assayed in human and rat liver cytosolic and microsomal fractions. The enzyme assays (each performed in 4–8 replicates) were repeated three times (HPLC measurement of CYP activities was repeated only twice, Table 3). Inhibition studies were carried out by incubation of specific substrates in the presence of sesquiterpenes (in the range 0–100 µM).
Enzyme activities of individual CYP forms were measured according to established protocols. The following microsomal CYP activities were tested: CYP2A6, coumarin 7-hydroxylation; CYP2B6, 7-ethoxy-4-(trifluoromethyl)coumarin 7-deethylation, CYP2C9, diclofenac 4′-hydroxylation, CYP2C19 assay, S-mephenytoin 4′-hydroxylation, CYP2D6 on bufuralol 1′-hydroxylation, CYP2E1, chlorzoxazone 6-hydroxylation and CYP3A4, testosterone 6β-hydroxylation, and midazolam 1′-hydroxylation. Activities were measured using the Prominence HPLC system (Shimadzu, Kyoto, Japan), equipped with a LiChroCART 250-4 LiChrospher 100 RP-18 column or Chromolith®HighResolution RP-18 end-capped column (Merck, Darmstadt, Germany) and UV or fluorescence detection, according to the cited literature. Further incubation details are described either in the corresponding references, as well as in the papers from this laboratory e.g., [42, 43, 44]. CYP1A2, 7-ethoxyresorufin O-deethylation, and CYP3A4/2B6 (human), CYP2B1 (rat), benzyloxyresorufin O-debenzylation were measured using the microplate reader Tecan Infinite M200 (Tecan Group; Mannedorf, Switzerland).
Sesquiterpenes CNER, TNER and FAR, non-volatile liquids, were pipetted, and proper concentration was calculated according to density. All compounds were dissolved in DMSO. […] All experiments were performed in three replicates, if not stated otherwise.
(§2) CNER, TNER and FAR at a fixed concentration of 100 µM were screened for inhibition of cytosolic AKR1A1, AKR1C, CBR1, NQO1, SULT, and GST, and microsomal CYPs and UGT. The degree of inhibition caused by sesquiterpenes was compared with non-inhibited control reactions, which contained solvent without sesquiterpenes.
The concentration of sesquiterpenes required for 50% inhibition of enzyme activity, the IC50 value, was determined. […] The IC50 values for each sesquiterpene were determined by plotting sigmoidal dose response curves of specific enzyme activity vs. logarithm of sesquiterpene concentration using GraphPad Prism version 6.07 for Windows (GraphPad Software Inc., La Jolla, CA, USA).
The kinetic inactivation study of the CYP1A2 (EROD activity) and CYP2B/3A (BROD activity), both in rat and human, with TNER, was performed to find out the mechanism of enzyme inhibition by this sesquiterpene. Mechanism of EROD and BROD inhibition was tested at the final ethoxyresorufin or benzyloxyresorufin concentrations 0.5–5.0 µM. The concentration of TNER was 5.0 µM.
Experimental data were fitted to the Michaelis-Menten equation, basic kinetic parameters were determined using the program GraphPad Prism version 6.07 for Windows. The type of inhibition was estimated using a Lineweaver-Burk (double-reciprocal) plot.

The next series relates to AKR1C. As to the kind of experiment: AKR1C activity in human liver subcellular fraction. The note with it: 100 µM sesquiterpene, control 23.5 ± 2.4. On the procedure:
as §1
(§3) The assays of all other enzymes were based on spectrophotometric detection of product formed or detection of decreasing substrate/cofactor levels using microplate reader Tecan Infinite M200 in cytosolic or microsomal fractions. Enzyme activities were determined using slight modifications of previously-published methods: carbonyl reducing enzymes (AKR1A, AKR1C, CBR1 [45], NQO1 [46]), UDP-glucuronosyltransferase (UGT [47]), sulfotransferase (SULT [48]), and cytosolic glutathione-S-transferase (GST [49]).
(§4) Sesquiterpenes CNER, TNER and FAR, non-volatile liquids, were pipetted, and proper concentration was calculated according to density. All compounds were dissolved in DMSO. The final solvent concentration in the inhibition assays was 1%, which had no effect on the enzyme activity (data not shown). Non-enzymatic interference of sesquiterpenes with some compounds in the reaction mixtures (e.g., fluorescence enhancing or quenching) was considered and excluded. All experiments were performed in three replicates, if not stated otherwise.
as §2

The target of another series is T2, CBR1 (Homo sapiens, UniProt P16152).
T2 construct: Frozen liver (both rat and human) was thawed; from tissue; host or cells: human liver cytosolic fraction
T2 sequence (P16152 1-277): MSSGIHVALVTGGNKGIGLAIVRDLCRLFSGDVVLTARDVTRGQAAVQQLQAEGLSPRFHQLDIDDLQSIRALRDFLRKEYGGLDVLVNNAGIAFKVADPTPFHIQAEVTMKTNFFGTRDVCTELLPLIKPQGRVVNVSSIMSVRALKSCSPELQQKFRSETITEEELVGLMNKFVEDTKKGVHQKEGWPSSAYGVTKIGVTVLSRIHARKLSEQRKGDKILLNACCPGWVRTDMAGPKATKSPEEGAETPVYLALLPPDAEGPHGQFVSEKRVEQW
As to the kind of experiment: CBR1 activity in human liver subcellular fraction. The note with it: 100 µM sesquiterpene, control 6.62 ± 1.84. On the procedure:
as §1, §3, §4, §2

A further series relates to SULT. As to the kind of experiment: SULT activity in human liver subcellular fraction. The note with it: 100 µM sesquiterpene, control 2.73 ± 0.18. On the procedure:
as §1, §3, §4, §2

A further series concerns GST. As to the kind of experiment: GST activity in rat liver subcellular fraction. The note with it: 100 µM sesquiterpene, control 350 ± 8. On the procedure: as §1, §3, §4, §2
The subject of another series is UGT. As to the kind of experiment: UGT activity in rat liver subcellular fraction. As to conditions: 100 µM sesquiterpene, control 16.2 ± 0.98. On the procedure:
as §1, §3, §4, §2

By IC50 is commonly meant the concentration that gives 50% inhibition. Broadly, the inhibition is how much of the control response was suppressed. As for `C=CC(C)(O)CC/C=C(/C)CCC=C(C)C` (stereo not drawn) [CNER, cis-nerolidol], on CYP1A2 (human liver microsomes), the half-maximal inhibitory concentration (IC50) was 2.49 µM and the “Specific Activity, CYP1A2 (EROD activity)” value (“Specific Activity, CYP1A2” below) is on record as 0.163 ± 0.005 pmol/mg/min. Moreover, on CYP1A2, the inhibition at 5 µM came out at 50%. Also, the “Specific activity, AKR1C” value with AKR1C came out at 22.7 ± 1.5 nmol/mg/min. Also, the “Specific activity, CBR1” value at CBR1 is listed as 7.17 ± 0.56 nmol/mg/min. Also, the “Specific activity, SULT” value in the series on SULT amounted to 3.12 ± 0.29 nmol/mg/min. Also, the “Specific activity, GST” value in the series on GST stood at 334 ± 22 nmol/mg/min. Besides, the “Specific activity, UGT” value in the series with UGT came to 15.9 ± 1.11 nmol/mg/min.
Take `CC(C)=CCC/C(C)=C/CC/C(C)=C/CO` [FAR, farnesol]: on CYP1A2 (human liver microsomes), the IC50 was determined as 1.83 µM and the “Specific Activity, CYP1A2” value is given as 0.083 ± 0.005 pmol/mg/min. For the same compound, the inhibition at 5 µM at CYP1A2 was 77%. Moreover, the “Specific activity, AKR1C” value in the series on AKR1C was 24.0 ± 1.5 nmol/mg/min. Besides, the “Specific activity, CBR1” value at CBR1 was determined as 6.83 ± 0.70 nmol/mg/min. Also, in the series on SULT, the “Specific activity, SULT” value is reported as 2.72 ± 0.23 nmol/mg/min. Also, in the series on GST, the “Specific activity, GST” value is on record as 345 ± 20 nmol/mg/min. In addition, the “Specific activity, UGT” value with UGT was found to be 14.3 ± 3.15 nmol/mg/min.
The Ki is a measure of affinity in units of concentration, obtained from inhibition or displacement. In the case of `C=CC(C)(O)CC/C=C(\C)CCC=C(C)C` (stereo not drawn) [TNER, trans-nerolidol], on CYP1A2 (human liver microsomes), the IC50 was found to be 8.69 µM and the “Specific Activity, CYP1A2” value stood at 0.287 ± 0.013 pmol/mg/min. For the same compound, the inhibition constant (Ki) at CYP1A2 (human liver microsomes, EROD activity) stood at 0.92 ± 0.52 µM. The “type of inhibition, CYP1A2 (EROD)” value on CYP1A2 (human microsomes, 5 µM TNER, ethoxyresorufin 0.5–5.0 µM) is reported as “competitively”. On CYP1A2, the inhibition at 5 µM was 38%. In addition, the “Specific activity, AKR1C” value in the series with AKR1C worked out at 21.4 ± 1.0 nmol/mg/min. On CBR1, the “Specific activity, CBR1” value came to 5.67 ± 0.67 nmol/mg/min. Besides, the “Specific activity, SULT” value with SULT worked out at 3.20 ± 0.26 nmol/mg/min. For the same compound, the “Specific activity, GST” value in the series on GST is listed as 354 ± 37 nmol/mg/min. The “Specific activity, UGT” value in the series with UGT is given as 16.4 ± 2.46 nmol/mg/min.
